Patent US20040106545A1, “Compounds and methods for modulating cell adhesion” (priority 1996, published 2004)
Where two headings read alike, the source gives them in different places. Positions of bridges follow the written chain, without caps; N, C: chain ends. Residues, ends and D or L forms follow the SMILES beside them.

Tests used:
[1] = tested on: Madin Darby canine kidney (MDCK) cells; assay type: cell-based; conditions: 18 h
chick N-cadherin = molecular target: T1, chick N-cadherin (Gallus gallus, UniProt P10288); experiment: Neurite outgrowth of rat cerebellar neurons on N-cadherin expressing 3T3 monolayers (Example 15); assay type: cell-based; conditions: 250 μg/mL, 16-18 hours; read-out: % Inhibition of N-Cadherin Dependent Neurite Outgrowth
T1 construct: expressed in transfected cells; host or cells: 3T3 fibroblasts (monolayer); rat post-natal day 2-3 cerebellar neurons plated on top
T1 sequence (P10288 165-912): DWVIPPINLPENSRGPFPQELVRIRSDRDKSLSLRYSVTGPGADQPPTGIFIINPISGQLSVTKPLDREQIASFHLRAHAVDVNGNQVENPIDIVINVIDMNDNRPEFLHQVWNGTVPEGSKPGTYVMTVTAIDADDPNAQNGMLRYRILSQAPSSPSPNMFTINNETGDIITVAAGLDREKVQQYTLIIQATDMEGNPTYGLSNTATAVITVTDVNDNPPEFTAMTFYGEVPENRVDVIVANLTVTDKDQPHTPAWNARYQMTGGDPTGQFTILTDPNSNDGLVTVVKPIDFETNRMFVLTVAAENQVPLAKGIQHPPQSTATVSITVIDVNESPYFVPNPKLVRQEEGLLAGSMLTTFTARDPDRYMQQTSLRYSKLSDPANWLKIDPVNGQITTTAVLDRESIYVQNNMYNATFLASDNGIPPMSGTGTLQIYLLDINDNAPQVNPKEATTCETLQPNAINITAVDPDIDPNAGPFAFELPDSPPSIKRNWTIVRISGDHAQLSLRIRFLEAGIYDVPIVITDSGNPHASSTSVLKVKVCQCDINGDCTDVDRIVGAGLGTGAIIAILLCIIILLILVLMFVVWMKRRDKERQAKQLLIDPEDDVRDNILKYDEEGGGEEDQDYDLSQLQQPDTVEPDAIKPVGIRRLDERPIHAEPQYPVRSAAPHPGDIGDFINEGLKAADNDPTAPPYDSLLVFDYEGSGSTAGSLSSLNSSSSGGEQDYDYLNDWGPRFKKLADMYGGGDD
Experimental: Cell culture and neurite outgrowth assays. Co-cultures of cerebellar neurons on monolayers of control 3T3 cells and monolayers of transfected 3T3 cells that express physiological levels of chick N-cadherin or human L1 were established as previously described (Williams et al., Neuron 13:583-594, 1994). In brief, 80,000 3T3 cells (control and transfected) were plated into individual chambers of an eight-chamber tissue culture slide coated with polylysine and fibronectin and cultured in DMEM/10% FCS. After 24 hours, when confluent monolayers had formed, the medium was removed and 3000 cerebellar neurons isolated from post-natal day 2-3 rats were plated into each well in SATO media (Doherty et al., Nature 343:464-466, 1990) supplemented with 2% FCS. All of the test peptides were added immediately before the neurons as a 2× stock prepared in SATO/2% FCS. The co-cultures were maintained for 16-18 hours, at which time they were fixed and immunostained for GAP-43 which is present only in the neurons and delineates the neuritic processes. The mean length of the longest neurite per cell was measured for 150-200 neurons sampled in replicate cultures as previously described (Williams et al., Neuron 13:583-594, 1994). […] Dose-response curves were evaluated and the EC50 values determined.

HMVEC = assay type: cell-based, human; conditions: 3 h
Experimental: (§1) N—Ac-CHAVC-NH2 (SEQ ID NO:10) and the control peptide N—Ac-CHGVC-NH2 (SEQ ID NO:11) were evaluated for possible cytotoxic effects on human microvascular endothelial (HMVEC; Clonetics), human umbilical vein endothelial (HUVEC; ATCC #CRL-1730), IAFp2 (human fibroblast cell line; Institute Armand-Frapier, Montreal, Quebec), WI-38 (human fibroblast cell line; ATCC #CCL-75), MDA-MB231 (human breast cancer cell line; ATCC #HTB-26), and PC-3 (human prostate cancer cell line; ATCC #CRL-1435) cells utilizing the MTT assay (Plumb et al., Cancer Res. 49:4435-4440, 1989). Neither of the peptides was cytotoxic at concentrations up to and including 100 μM. Similarly, neither of the peptides was capable of inhibiting the proliferation of the above cell lines at concentrations up to 100 μM, as judged by ^3H-thymidine incorporation assays.

HUVEC = assay type: cell-based, human; conditions: 3 h
Experimental: as §1

IAFp2 = assay type: cell-based, human; conditions: 3 h
Experimental: as §1

MDA-MB231 [2] = assay type: cell-based, human; conditions: 3 h
Experimental: as §1

PC-3 [3] = assay type: cell-based, human; conditions: 3 h
Experimental: as §1

WI-38 = assay type: cell-based, human; conditions: 3 h
Experimental: as §1

MDA-MB231 [4] = experiment: Cytotoxicity, MTT assay, MDA-MB231; assay type: cell-based, human
Experimental: as §1

PC-3 [5] = experiment: Cytotoxicity, MTT assay, PC-3; assay type: cell-based, human
Experimental: as §1

N-cadherin = molecular target: T2, N-cadherin (Gallus gallus, UniProt P10288); experiment: Neurite outgrowth inhibition, rat neurons (Example 21); assay type: cell-based; conditions: read-out: % Inhibition of neurite outgrowth; 250 μg/mL
T2 construct: expressed in transfected cells; host or cells: 3T3 fibroblasts (monolayer)
T2 sequence (P10288 165-912): T1 sequence (P10288 165-912)

[6] = tested on: chick embryonic chorioallantoic membranes; experiment: Chick chorioallantoic membrane angiogenesis assay; assay type: in vivo; conditions: for Percent Inhibition of Angiogenesis: 24 hours
Experimental: Another cell adhesion assay evaluates the ability of a modulating agent to block angiogenesis (the growth of blood vessels from pre-existing blood vessels). This ability may be assayed using the chick chorioallantoic membrane assay described by Iruela-Arispe et al., Molecular Biology of the Cell 6:327-343, 1995. Briefly, a modulating agent may be embedded in a mesh composed of vitrogen at one or more concentrations (e.g., ranging from about 1 to 100 μg/mesh). The mesh(es) may then be applied to chick chorioallantoic membranes. After 24 hours, the effect of the peptide may be determined using computer assisted morphometric analysis. A modulating agent should inhibit angiogenesis by at least 25% at a concentration of 33 μg/mesh.
The chick chorioallantoic membrane assay was used to assess the effects of cyclic peptides on angiogenesis (Iruela-Arispe et al., Molecular Biology of the Cell 6:327-343, 1995). Cyclic peptides were embedded in a mesh composed of vitrogen at concentrations of 3, 17, and 33 μg/mesh. The meshes were then applied to 12-day-old chick embryonic chorioallantoic membranes. After 24 hours, the effects of the peptides on angiogenesis were assessed by computer assisted morphometric analysis.

SMILES	EC50 [1] [µM]	IC50 (HMVEC) [µM]	IC50 (HUVEC) [µM]	IC50 (IAFp2) [µM]	IC50 (MDA-MB231 [2]) [µM]	IC50 (PC-3 [3]) [µM]	IC50 (WI-38) [µM]	IC50 (MDA-MB231 [4]) [µM]	IC50 (PC-3 [5]) [µM]	inhibition at 250 µg/mL (N-cadherin) [%]	further results
CC(=O)N[C@H]1CSSC[C@@H](C(N)=O)NC(=O)[C@H](C(C)C)NC(=O)[C@H](C)NC(=O)[C@H](Cc2c[nH]cn2)NC(=O)[C@H](CO)NC(=O)[C@H](Cc2ccccc2)NC1=O [N—Ac—CFSHAVC—NH2] (Ac-CFSHAVC-NH2; disulfide 1-7)	22	–	–	–	–	–	–	–	–	–	–
CC(=O)N[C@H]1CSSC[C@@H](C(=O)N[C@@H](CC(=O)O)C(N)=O)NC(=O)[C@H](C(C)C)NC(=O)[C@H](C)NC(=O)[C@H](Cc2c[nH]cn2)NC1=O [N—Ac—CHAVCD—NH2] (Ac-CHAVCD-NH2; disulfide 1-5)	470	–	–	–	–	–	–	–	–	–	inhibition at 250 µg/mL (chick N-cadherin): 3.3 ± 10%
CC(=O)N[C@H]1CSSC[C@@H](C(N)=O)NC(=O)[C@H](CO)NC(=O)[C@H](C(C)C)NC(=O)CNC(=O)[C@H](Cc2c[nH]cn2)NC1=O [N—Ac—CHGVSC—NH2] (Ac-CHGVSC-NH2; disulfide 1-6)	–	> 100	42	> 100	> 100	> 100	> 100	> 100	> 100	0	–
CC(=O)N[C@H]1CSSC[C@@H](C(N)=O)NC(=O)[C@H](C(C)C)NC(=O)CNC(=O)[C@H](Cc2c[nH]cn2)NC(=O)[C@H](CO)NC1=O [N—Ac—CSHGVC—NH2] (Ac-CSHGVC-NH2; disulfide 1-6)	–	> 100	> 100	> 100	> 100	> 100	> 100	> 100	> 100	0	–
CC(=O)N[C@H]1CSSC[C@@H](C(N)=O)NC(=O)[C@H](Cc2c[nH]cn2)NC(=O)[C@H](C)NC(=O)[C@H](C(C)C)NC1=O [N—Ac—CVAHC—NH2] (Ac-CVAHC-NH2; disulfide 1-5)	–	> 100	8	> 100	> 100	> 100	> 100	> 100	> 100	–	Percent Inhibition of Angiogenesis ([6]; 3 μg/mesh, absence (−) of 0.01 mM VEGF): −1%^; Percent Inhibition of Angiogenesis ([6]; 3 μg/mesh, presence (+) of 0.01 mM VEGF): 7%; Percent Inhibition of Angiogenesis ([6]; 17 μg/mesh, absence (−) of 0.01 mM VEGF): 13%; Percent Inhibition of Angiogenesis ([6]; 17 μg/mesh, presence (+) of 0.01 mM VEGF): 24%; Percent Inhibition of Angiogenesis ([6]; 33 μg/mesh, absence (−) of 0.01 mM VEGF): 12%; Percent Inhibition of Angiogenesis ([6]; 33 μg/mesh, presence (+) of 0.01 mM VEGF): 25%; inhibition of angiogenesis (in words) ([6]; 3, 17 and 33 μg/mesh): relatively inactive
CC(=O)N[C@@H](CO)C(=O)N[C@H]1CSSC[C@@H](C(N)=O)NC(=O)[C@H](C(C)C)NC(=O)[C@H](C)NC(=O)[C@H](Cc2c[nH]cn2)NC1=O [N—Ac—S—CHAVC—NH2] (Ac-SCHAVC-NH2; disulfide 2-6)	490	–	–	–	–	–	–	–	–	–	–
